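Test compounds were applied to cells in 96-well plates for 48 hours at 5 doses. Here, GI50 denotes the concentration required for 50% inhibition of growth. The concentration for full growth arrest is given as TGI.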
How the values were obtained:
Test in all cases: NCI anticancer screen, dose series, 48 h
DLD-1 colon = system: DLD-1 colon
DMS 114 small cell lung = system: DMS 114 small cell lung
DMS 273 small cell lung = system: DMS 273 small cell lung
HOP-62 NSCLC = system: HOP-62 NSCLC
KM20L2 colon = system: KM20L2 colon
LOX IMVI melanoma = system: LOX IMVI melanoma
LXFL 529 NSCLC = system: LXFL 529 NSCLC
M19-MEL melanoma = system: M19-MEL melanoma
SK-MEL-5 melanoma = system: SK-MEL-5 melanoma
SK-OV-3 ovarian = system: SK-OV-3 ovarian
SNB-78 CNS = system: SNB-78 CNS
XF 498 CNS = system: XF 498 CNS
OVCAR-3 ovarian = system: OVCAR-3 ovarian

Row | SMILES | TGI (DLD-1 colon) [µM] | TGI (DMS 114 small cell lung) [µM] | TGI (DMS 273 small cell lung) [µM] | TGI (HOP-62 NSCLC) [µM] | TGI (KM20L2 colon) [µM] | TGI (LOX IMVI melanoma) [µM] | TGI (LXFL 529 NSCLC) [µM] | TGI (M19-MEL melanoma) [µM] | TGI (SK-MEL-5 melanoma) [µM] | TGI (SK-OV-3 ovarian) [µM] | TGI (SNB-78 CNS) [µM] | TGI (XF 498 CNS) [µM] | TGI (OVCAR-3 ovarian) [µM] | GI50 (KM20L2 colon) [µM] | GI50 (LXFL 529 NSCLC) [µM] | GI50 (M19-MEL melanoma) [µM] | GI50 (SNB-78 CNS) [µM]
1 | CC1(n2nc(-c3ccccc3)n(-c3ccccc3)c2=O)CSC1 | > 100 | > 100 | > 100 | > 100 | > 100 | > 100 | > 100 | > 100 | > 100 | > 100 | > 100 | > 100 | – | – | – | – | –
2 | CC(=O)C(C(=O)c1ccc(C)cc1)[C@@H]1OC(C)(C)O[C@@H]1[C@H]1COC(C)(C)O1 (stereo not given in full) | – | – | – | > 58.4 | – | 21.8 | – | – | 29.2 | > 100 | – | – | 24.4 | – | – | – | –
3 | CC(=O)NC1C(OCc2ccccc2)OC(CO)C(O)C1OC(C)C(=O)NC(C(=O)NC(CCC(=O)NCCCC(=O)Nc1ccc2c(c1)CN1C(=O)c3ccccc3C1=N2)C(N)=O)C(C)C (stereo not given) | – | – | – | > 100 | – | > 100 | – | – | > 100 | > 100 | – | – | > 100 | – | – | – | –
4 | N=C1C(=N)c2ccccc2-c2ccccc21.[Cl-].[Ru+2].c1cnc2c(c1)ccc1cccnc12.c1cnc2c(c1)ccc1cccnc12 | – | – | – | > 100 | 92.5 | 75.1 | 55.7 | > 100 | 34.4 | > 100 | > 100 | – | 68.6 | 34.5 | 18.9 | 24.6 | 39.2
5 | O=C1CC(Br)c2c(Br)sc(Br)c21 (stereo not given) | – | – | – | 39 | – | 27.4 | – | – | 35.4 | 55.9 | – | – | 32.9 | – | – | – | –
6 | CC1=NN(c2cccc(S(=O)(=O)O)c2)C2(C1)C(Cl)C(=O)N2c1nc2ccccc2s1 (stereo not given) | – | – | – | 17.9 | – | 3.77 | – | – | 18.8 | 24.2 | – | – | 9.26 | – | – | – | –
7 | CC(=O)OCC1OC(NC(=S)Nn2c(=O)[nH]c3ccccc3c2=O)C(OC(C)=O)C(OC(C)=O)C1OC(C)=O (stereo not given) | – | – | – | > 100 | – | > 100 | – | – | > 100 | > 100 | – | – | > 100 | – | – | – | –
8 | C[C@]12CC[C@H]3[C@@H](CCC4=CC(=O)CC[C@@H]43)[C@@H]1CC[C@]2(O)C(N)=O | – | – | – | > 100 | – | > 100 | – | – | > 100 | > 100 | – | – | > 100 | – | – | – | –
9 | O=C1c2ccccc2-c2nnc(-c3ccc([N+](=O)[O-])cc3)cc21 | – | – | – | > 10 | – | > 10 | – | – | > 10 | > 10 | – | – | > 10 | – | – | – | –
10 | Cc1c2c(cc3c1C(=O)C(=O)C([C@@H](C)CO)=C3O)C(C)(C)CCC2 | – | – | – | > 100 | – | > 100 | – | – | 86.9 | > 100 | – | – | > 100 | – | – | – | –
11 | C=CCN1C(=O)/C(=C/c2ccc(Cl)cc2)N=C1SC/C=C/C | – | – | – | > 100 | – | > 100 | – | – | 82 | > 100 | – | – | > 100 | – | – | – | –
12 | COc1cccc(Nc2nc(C)c([N+](=O)[O-])c(Nc3cccc(OC)c3)n2)c1 | – | – | – | 46.2 | – | > 100 | – | – | 77.2 | > 100 | – | – | 57.2 | – | – | – | –
13 | CCOc1cccc(C=Nc2ccccc2SSc2ccccc2N=Cc2cccc(OCC)c2O)c1O | – | – | – | 30.9 | – | 14.9 | – | – | 7.58 | 52 | – | – | 8.16 | – | – | – | –

Source: PubChem BioAssay (NCI)
